Test results published in the supplement of paper PMC4932681.

What was measured:
ZR-75-1 Tam2 [1] = assay: drug sensitivity score (DSS) (DSS (dimensionless)); higher = more sensitive; extreme values may be limits of the assay; details: 4-OH-tamoxifen in medium 1 µM; 72 h
How it was run: (§1)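 Breast cancer cell lines and their resistant derivatives were seeded into 384-well plates containing library drugs at five concentrations across a 10 000-fold range, with resistant lines kept in medium with 1 μM of the selecting drug. After 72 h at 37 °C, CellTiter-Glo viability was read on a PHERAstar and normalised to vehicle-only and positive controls. Logistic dose–response fits in the Breeze pipeline gave drug sensitivity score, relative IC50 (curve midpoint) and top-dose inhibition.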

T-47D Tam1 [2] = assay: as above; details: 4-OH-tamoxifen in medium 1 µM; 72 h
How it was run: as §1

MCF-7 [3] = assay: as above; details: 72 h
How it was run: as §1

BT-474 Tam1 [4] = assay: as above; details: 4-OH-tamoxifen in medium 1 µM; 72 h
How it was run: as §1

BT-474 [5] = assay: as above; details: 72 h
How it was run: as §1

ZR-75-1 Tam1 [6] = assay: as above; details: 4-OH-tamoxifen in medium 1 µM; 72 h
How it was run: as §1

BT-474 Tam2 [7] = assay: as above; details: 4-OH-tamoxifen in medium 1 µM; 72 h
How it was run: as §1

T-47D [8] = assay: as above; details: 72 h
How it was run: as §1

ZR-75-1 [9] = assay: as above; details: 72 h
How it was run: as §1

MCF-7 Tam1 [10] = assay: as above; details: 4-OH-tamoxifen in medium 1 µM; 72 h
How it was run: as §1

T-47D Tam2 [11] = assay: as above; details: 4-OH-tamoxifen in medium 1 µM; 72 h
How it was run: as §1

ZR-75-1 Tam2 [12] = assay: relative IC50 (midpoint of fitted logistic curve, plateau may be below 50% inhibition; CellTiter-Glo viability); higher = less potent; details: 4-OH-tamoxifen in medium 1 µM; 72 h
How it was run: as §1

T-47D Tam1 [13] = assay: as above; details: 4-OH-tamoxifen in medium 1 µM; 72 h
How it was run: as §1

MCF-7 [14] = assay: as above; details: 72 h
How it was run: as §1

BT-474 Tam1 [15] = assay: as above; details: 4-OH-tamoxifen in medium 1 µM; 72 h
How it was run: as §1

BT-474 [16] = assay: as above; details: 72 h
How it was run: as §1

BT-474 Tam2 [17] = assay: as above; details: 4-OH-tamoxifen in medium 1 µM; 72 h
How it was run: as §1

T-47D [18] = assay: as above; details: 72 h
How it was run: as §1

ZR-75-1 [19] = assay: as above; details: 72 h
How it was run: as §1

MCF-7 Tam1 [20] = assay: as above; details: 4-OH-tamoxifen in medium 1 µM; 72 h
How it was run: as §1

T-47D Tam2 [21] = assay: as above; details: 4-OH-tamoxifen in medium 1 µM; 72 h
How it was run: as §1

ZR-75-1 Tam1 [22] = assay: as above; details: 4-OH-tamoxifen in medium 1 µM; 72 h
How it was run: as §1

SMILES	relative IC50 (T-47D Tam1 [13]) [µM]	relative IC50 (MCF-7 [14]; 4-OH-tamoxifen in medium 0 µM) [µM]	relative IC50 (MCF-7 [14]; 4-OH-tamoxifen in medium 1 µM) [µM]	relative IC50 (BT-474 Tam1 [15]) [µM]	relative IC50 (BT-474 [16]; 4-OH-tamoxifen in medium 0 µM) [µM]	relative IC50 (BT-474 [16]; 4-OH-tamoxifen in medium 1 µM) [µM]	relative IC50 (BT-474 Tam2 [17]) [µM]	relative IC50 (T-47D [18]; 4-OH-tamoxifen in medium 0 µM) [µM]	relative IC50 (T-47D [18]; 4-OH-tamoxifen in medium 1 µM) [µM]	relative IC50 (MCF-7 Tam1 [20]) [µM]	relative IC50 (T-47D Tam2 [21]) [µM]	drug sensitivity score (ZR-75-1 Tam2 [1])	drug sensitivity score (T-47D Tam1 [2])	drug sensitivity score (MCF-7 [3]; 4-OH-tamoxifen in medium 0 µM)	drug sensitivity score (MCF-7 [3]; 4-OH-tamoxifen in medium 1 µM)	drug sensitivity score (BT-474 Tam1 [4])	drug sensitivity score (BT-474 [5]; 4-OH-tamoxifen in medium 0 µM)	drug sensitivity score (BT-474 [5]; 4-OH-tamoxifen in medium 1 µM)	drug sensitivity score (ZR-75-1 Tam1 [6])	drug sensitivity score (BT-474 Tam2 [7])	drug sensitivity score (T-47D [8]; 4-OH-tamoxifen in medium 0 µM)	drug sensitivity score (T-47D [8]; 4-OH-tamoxifen in medium 1 µM)	drug sensitivity score (ZR-75-1 [9]; 4-OH-tamoxifen in medium 0 µM)	drug sensitivity score (ZR-75-1 [9]; 4-OH-tamoxifen in medium 1 µM)	drug sensitivity score (MCF-7 Tam1 [10])	drug sensitivity score (T-47D Tam2 [11])	relative IC50 (ZR-75-1 Tam2 [12]) [µM]	relative IC50 (ZR-75-1 [19]; 4-OH-tamoxifen in medium 0 µM) [µM]	relative IC50 (ZR-75-1 Tam1 [22]) [µM]	relative IC50 (ZR-75-1 [19]; 4-OH-tamoxifen in medium 1 µM) [µM]
COc1cc(Nc2ncc(F)c(Nc3ccc4c(n3)N(COP(=O)(O)O)C(=O)C(C)(C)O4)n2)cc(OC)c1OC	1.43	1.79	2.36	3.56	> 10	2.92	> 10	2.34	2.89	6.95	2.27	1.42	4.15	2.7	4.99	2.63	0	2.25	1.22	0	2.65	1.95	0	0.307	1.04	3.3	3.16	> 10		
Cc1cc(Nc2cc(CN3CCOCC3)c3nc(C)c(Cc4ccc(Cl)cc4F)n3n2)n[nH]1	1.56	1.41	2.7	0.329	> 10	1.04	0.749			3.26	1.98	0.848	3.55	6.61	4.32	16.2	0	7.73	0	12.8	1.41	1.86	0	0	2.42	3.58		> 10	> 10	> 10
Oc1ncnc2[nH]ncc12 [Allopurinol]	> 10	> 10	> 10	> 10	> 10			> 10	> 10	> 10	> 10	0	0	0	0	0	0	2.18	0	0	0	0	0	0	0	0	> 10	> 10		> 10
CCCCCOC(=O)Nc1nc(=O)n([C@@H]2O[C@H](C)[C@@H](O)[C@H]2O)cc1F [Capecitabine]	> 10	> 10	> 10	> 10	> 10	> 10	> 10	> 10	> 10	> 10	> 10	0.0192	0	0	0	0	0	0	0.129	0	0	0	1.86	0	0	0				> 10

Further lines, with some results ahead:

relative IC50 (T-47D Tam1 [13]) [µM]	relative IC50 (MCF-7 [14]; 4-OH-tamoxifen in medium 0 µM) [µM]	relative IC50 (MCF-7 [14]; 4-OH-tamoxifen in medium 1 µM) [µM]	relative IC50 (BT-474 Tam1 [15]) [µM]	relative IC50 (BT-474 [16]; 4-OH-tamoxifen in medium 0 µM) [µM]	relative IC50 (BT-474 [16]; 4-OH-tamoxifen in medium 1 µM) [µM]	relative IC50 (BT-474 Tam2 [17]) [µM]	relative IC50 (T-47D [18]; 4-OH-tamoxifen in medium 0 µM) [µM]	relative IC50 (T-47D [18]; 4-OH-tamoxifen in medium 1 µM) [µM]	relative IC50 (MCF-7 Tam1 [20]) [µM]	relative IC50 (T-47D Tam2 [21]) [µM]	SMILES	drug sensitivity score (ZR-75-1 Tam2 [1])	drug sensitivity score (T-47D Tam1 [2])	drug sensitivity score (MCF-7 [3]; 4-OH-tamoxifen in medium 0 µM)	drug sensitivity score (MCF-7 [3]; 4-OH-tamoxifen in medium 1 µM)	drug sensitivity score (BT-474 Tam1 [4])	drug sensitivity score (BT-474 [5]; 4-OH-tamoxifen in medium 0 µM)	drug sensitivity score (BT-474 [5]; 4-OH-tamoxifen in medium 1 µM)	drug sensitivity score (ZR-75-1 Tam1 [6])	drug sensitivity score (BT-474 Tam2 [7])	drug sensitivity score (T-47D [8]; 4-OH-tamoxifen in medium 0 µM)	drug sensitivity score (T-47D [8]; 4-OH-tamoxifen in medium 1 µM)	drug sensitivity score (ZR-75-1 [9]; 4-OH-tamoxifen in medium 0 µM)	drug sensitivity score (ZR-75-1 [9]; 4-OH-tamoxifen in medium 1 µM)	drug sensitivity score (MCF-7 Tam1 [10])	drug sensitivity score (T-47D Tam2 [11])	relative IC50 (ZR-75-1 Tam2 [12]) [µM]	relative IC50 (ZR-75-1 [19]; 4-OH-tamoxifen in medium 0 µM) [µM]	relative IC50 (ZR-75-1 Tam1 [22]) [µM]	relative IC50 (ZR-75-1 [19]; 4-OH-tamoxifen in medium 1 µM) [µM]
2.88	2.87	3.34	1.59		3.35	3.57		3.9	3.94	3.36	CC/C(=C(\c1ccc(O)cc1)c1ccc(OCCN(C)C)cc1)c1ccccc1 [4-hydroxytamoxifen]	1.3	2.07	3.05	4.41	9.04	0.905	5.15	0.263	4.79	0.306	2.56	0	1.5	1.87	4.19		> 10		3.2
1.17	0.615	1.49	1.35	0.347	0.891	0.992	> 10	> 10	> 10	0.92	COc1ccc(S(=O)(=O)Nc2cccnc2Nc2ccc(O)cc2)cc1 [ABT-751]	1.41	6.4	6.87	4.14	6.57	6.81	9.13	0	6.39	0	0	5.44	0.184	0	4.48		0.412	> 10	
1.32	3.14	4.01	1.58	2.95	1.13	1.61	2.48	3.38	4.02	1.78	COc1cc(Nc2c(C#N)cnc3cc(OCCCN4CCN(C)CC4)c(OC)cc23)c(Cl)cc1Cl [Bosutinib]	3.08	7.41	4.57	3.41	8.93	4.93	10.5	0.537	8.71	2.64	3.44	0.173	0.731	2.05	6.72	3.19			
